# According to patent publication US20220218852A1, “NOVEL RADIOLABELLED CXCR4-TARGETING COMPOUNDS FOR DIAGNOSIS AND THERAPY” (PROVINCIAL HEALTH SERVICES AUTHORITY, priority 2019, published 2022):
# Where two headings read alike, the source gives them in different places. Positions of bridges follow the written chain, without caps; N, C: chain ends. Non-standard residues stand in square brackets, D forms with d. Residues, ends and D or L forms follow the SMILES beside them. Groups on a side chain read outwards from the residue. *: point of attachment. DOTA = O=C(O)CN1CCN(CC(=O)O)CCN(CC(=O)*)CCN(CC(=O)O)CC1; 2Nal = N[C@@H](Cc1ccc2ccccc2c1)C(=O)O; Lys(iPr) = CC(C)NCCCC[C@H](N)C(=O)O
# Legend:
# [1] = Biodistribution in GRANTA519 tumor-bearing mice; format: in vivo; settings: male, NOD.Cg-Rag1^tm1MomII2rg^tm1Wjl/SzJ (NRG), mouse, iv, total radioactivity
# Method: (§1) For Daudi, Z138, GRANTA519 and Jeko1 xenografts, male NOD.Cg-Rag1^tm1MomII2rg^tm1Wjl/SzJ (NRG) mice were subcutaneously inoculated on the left flank with 5×10^6 cells (100 μL; 1:1 ratio of PBS/Matrigel) and tumors were grown to a size of 200-500 mm^3. For PC-3 xenografts, male NOD.Cg-Rag1^tm1MomII2rg^tm1Wjl/SzJ (NRG) mice were subcutaneously inoculated on the left flank with 5×10^6 PC-3 cells (100 μL; 1:1 ratio of PBS/Matrigel) and tumors were grown to a size of 200-400 mm^3.
# (§2) The mice were euthanized via CO2 inhalation while anesthetized with isoflurane. Tissues were harvested, washed in PBS, blotted dry, weighed, and measured on a Hidex AMG Automatic Gamma Counter.
# [2] = test system: GRANTA519 mantle cell lymphoma xenografts; test: Biodistribution in GRANTA519 tumor-bearing mice; format: in vivo
# Method: as §1, §2
# [3] = GRANTA519 tumour, read-out: Biodistribution GRANTA519 (tumour)
# [4] = adrenals, read-out: Biodistribution Adrenals
# [5] = bone, read-out: Biodistribution Bone
# [6] = fat, read-out: Biodistribution Fat
# [7] = intestine, read-out: Biodistribution Intestine
# [8] = kidney, read-out: Biodistribution Kidney
# [9] = liver, read-out: Biodistribution Liver
# [10] = lung, read-out: Biodistribution Lung
# [11] = muscle, read-out: Biodistribution Muscle
# [12] = pancreas, read-out: Biodistribution Pancreas
# [13] = spleen, read-out: Biodistribution Spleen
# [14] = stomach, read-out: Biodistribution Stomach
# [15] = testes, read-out: Biodistribution Testes
# [16] = whole blood, read-out: Biodistribution Blood
smiles,measurement,setting,value
"CC(C)NCCCC[C@@H]1NC(=O)[C@H](Cc2ccc(O)cc2)NC(=O)[C@H](Cc2ccccc2)NC(=O)CC[C@H](C(=O)N[C@@H](CCCCNC(C)C)C(=O)N[C@@H](CCCCNC(=O)[C@H](CCC(=O)O)NC(=O)[C@H](CCC(=O)O)NC(=O)[C@H](CCC(=O)O)NC(=O)CN2CCN(CC(=O)O)CCN(CC(=O)O)CCN(CC(=O)O)CC2)C(N)=O)NC(=O)CNC(=O)[C@H](Cc2ccc3ccccc3c2)NC(=O)[C@@H](CCCNC(=N)N)NC1=O [[^177Lu]Lu-BL02, metal not drawn] (FY[Lys(iPr)][dR][2Nal]G[dE][Lys(iPr)]K([Glu-Glu-Glu-DOTA])-NH2; lactam N-7)",tissue uptake at 1 h,"[1]; GRANTA519 tumour, 1 h, read-out: Biodistribution GRANTA519 (tumour)",6.83 %ID/g
same,tissue uptake at 1 h,"[1]; GRANTA519 tumour, 1 h blocked, read-out: Biodistribution GRANTA519 (tumour)",0.84 %ID/g
same,tissue uptake at 4 h,[1]; [3],3.22 %ID/g
same,tissue uptake at 24 h,[1]; [3],1.09 %ID/g
same,tissue uptake at 72 h,[1]; [3],0.353 %ID/g
same,tissue uptake at 1 h,"[1]; adrenals, 1 h, read-out: Biodistribution Adrenals",0.39 %ID/g
same,tissue uptake at 1 h,"[1]; adrenals, 1 h blocked, read-out: Biodistribution Adrenals",0.48 %ID/g
same,tissue uptake at 4 h,[1]; [4],0.1 %ID/g
same,tissue uptake at 24 h,[1]; [4],0.094 %ID/g
same,tissue uptake at 72 h,[1]; [4],0.346 %ID/g
same,tissue uptake at 1 h,"[1]; bone, 1 h, read-out: Biodistribution Bone",0.24 %ID/g
same,tissue uptake at 4 h,[1]; [5],0.09 %ID/g
same,tissue uptake at 24 h,[1]; [5],0.09 %ID/g
same,tissue uptake at 72 h,[1]; [5],0.061 %ID/g
same,tissue uptake at 1 h,"[1]; bone, 1 h blocked, read-out: Biodistribution Bone",0.41 %ID/g
same,tissue uptake at 1 h,"[1]; fat, 1 h, read-out: Biodistribution Fat",0.08 %ID/g
same,tissue uptake at 4 h,[1]; [6],0.01 %ID/g
same,tissue uptake at 24 h,[1]; [6],0.008 %ID/g
same,tissue uptake at 72 h,[1]; [6],0.006 %ID/g
same,tissue uptake at 1 h,"[1]; fat, with LY2510924 7.5 μg i.p. 15 min before radiotracer, 1 h blocked, read-out: Biodistribution Fat",0.16 %ID/g
same,tissue uptake at 1 h,"[1]; heart, 1 h, read-out: Biodistribution Heart",0.19 %ID/g
same,tissue uptake at 1 h,"[1]; heart, 1 h blocked, read-out: Biodistribution Heart",0.4 %ID/g
same,tissue uptake at 24 h,"[1]; heart, read-out: Biodistribution Heart",0.034 %ID/g
same,tissue uptake at 1 h,"[1]; intestine, 1 h, read-out: Biodistribution Intestine",0.28 %ID/g
same,tissue uptake at 1 h,"[1]; intestine, 1 h blocked, read-out: Biodistribution Intestine",0.58 %ID/g
same,tissue uptake at 24 h,[1]; [7],0.046 %ID/g
same,tissue uptake at 72 h,[1]; [7],0.017 %ID/g
same,tissue uptake at 1 h,"[1]; kidney, 1 h, read-out: Biodistribution Kidney",3.91 %ID/g
same,tissue uptake at 1 h,"[1]; kidney, 1 h blocked, read-out: Biodistribution Kidney",8.63 %ID/g
same,tissue uptake at 4 h,[1]; [8],2.98 %ID/g
same,tissue uptake at 24 h,[1]; [8],1.33 %ID/g
same,tissue uptake at 72 h,[1]; [8],0.573 %ID/g
same,tissue uptake at 1 h,"[1]; liver, 1 h, read-out: Biodistribution Liver",0.96 %ID/g
same,tissue uptake at 4 h,[1]; [9],0.87 %ID/g
same,tissue uptake at 24 h,[1]; [9],0.635 %ID/g
same,tissue uptake at 72 h,[1]; [9],0.413 %ID/g
same,tissue uptake at 1 h,"[1]; liver, with LY2510924 7.5 μg i.p. 15 min before radiotracer, 1 h blocked, read-out: Biodistribution Liver",1.07 %ID/g
same,tissue uptake at 1 h,"[1]; lung, 1 h, read-out: Biodistribution Lung",0.77 %ID/g
same,tissue uptake at 1 h,"[1]; lung, 1 h blocked, read-out: Biodistribution Lung",1.16 %ID/g
same,tissue uptake at 4 h,[1]; [10],0.27 %ID/g
same,tissue uptake at 24 h,[1]; [10],0.117 %ID/g
same,tissue uptake at 72 h,[1]; [10],0.06 %ID/g
same,tissue uptake at 1 h,"[1]; muscle, 1 h, read-out: Biodistribution Muscle",0.13 %ID/g
same,tissue uptake at 1 h,"[1]; muscle, 1 h blocked, read-out: Biodistribution Muscle",0.34 %ID/g
same,tissue uptake at 4 h,[1]; [11],0.04 %ID/g
same,tissue uptake at 24 h,[1]; [11],0.015 %ID/g
same,tissue uptake at 72 h,[1]; [11],0.007 %ID/g
same,tissue uptake at 1 h,"[1]; pancreas, 1 h, read-out: Biodistribution Pancreas",0.17 %ID/g
same,tissue uptake at 24 h,[1]; [12],0.028 %ID/g
same,tissue uptake at 72 h,[1]; [12],0.015 %ID/g
same,tissue uptake at 1 h,"[1]; pancreas, with LY2510924 7.5 μg i.p. 15 min before radiotracer, 1 h blocked, read-out: Biodistribution Pancreas",0.3 %ID/g
same,tissue uptake at 1 h,"[1]; spleen, 1 h, read-out: Biodistribution Spleen",0.49 %ID/g
same,tissue uptake at 4 h,[1]; [13],0.28 %ID/g
same,tissue uptake at 24 h,[1]; [13],0.321 %ID/g
same,tissue uptake at 72 h,[1]; [13],0.198 %ID/g
same,tissue uptake at 1 h,"[1]; spleen, with LY2510924 7.5 μg i.p. 15 min before radiotracer, 1 h blocked, read-out: Biodistribution Spleen",0.48 %ID/g
same,tissue uptake at 1 h,"[1]; stomach, 1 h, read-out: Biodistribution Stomach",0.1 %ID/g
same,tissue uptake at 4 h,[1]; [14],0.05 %ID/g
same,tissue uptake at 24 h,[1]; [14],0.206 %ID/g
same,tissue uptake at 72 h,[1]; [14],0.021 %ID/g
same,tissue uptake at 1 h,"[1]; stomach, with LY2510924 7.5 μg i.p. 15 min before radiotracer, 1 h blocked, read-out: Biodistribution Stomach",0.19 %ID/g
same,tissue uptake at 1 h,"[1]; testes, 1 h, read-out: Biodistribution Testes",0.21 %ID/g
same,tissue uptake at 1 h,"[1]; testes, 1 h blocked, read-out: Biodistribution Testes",0.32 %ID/g
same,tissue uptake at 24 h,[1]; [15],0.034 %ID/g
same,tissue uptake at 72 h,[1]; [15],0.034 %ID/g
same,tissue uptake at 1 h,"[1]; whole blood, 1 h, read-out: Biodistribution Blood",0.5 %ID/g
same,tissue uptake at 4 h,[1]; [16],0.02 %ID/g
same,tissue uptake at 24 h,[1]; [16],0.006 %ID/g
same,tissue uptake at 72 h,[1]; [16],0.002 %ID/g
same,tissue uptake at 1 h,"[1]; whole blood, with LY2510924 7.5 μg i.p. 15 min before radiotracer, 1 h blocked, read-out: Biodistribution Blood",1.14 %ID/g
same,Ratio Tumour:Blood,[2]; 1 h,14.18
same,Ratio Tumour:Bone,[2]; 1 h,28.95
same,Ratio Tumour:Liver,[2]; 1 h,7.10
same,Ratio Tumour:Lung,[2]; 1 h,9.08
same,Ratio Tumour:Muscle,[2]; 1 h,56.86
same,Ratio Tumour:Spleen,[2]; 1 h,14.20
same,Ratio Tumour:Blood,[2]; 1 h blocked,0.77
same,Ratio Tumour:Bone,[2]; 1 h blocked,2.16
same,Ratio Tumour:Liver,[2]; 1 h blocked,0.78
same,Ratio Tumour:Lung,[2]; 1 h blocked,0.74
same,Ratio Tumour:Muscle,[2]; 1 h blocked,3.18
same,Ratio Tumour:Spleen,[2]; 1 h blocked,1.77
same,Ratio Tumour:Blood,[2]; 4 h,119.44
same,Ratio Tumour:Bone,[2]; 4 h,34.26
same,Ratio Tumour:Liver,[2]; 4 h,3.75
same,Ratio Tumour:Lung,[2]; 4 h,12.56
same,Ratio Tumour:Muscle,[2]; 4 h,90.57
same,Ratio Tumour:Spleen,[2]; 4 h,11.98
same,Ratio Tumour:Blood,[2]; 24 h,206.07
same,Ratio Tumour:Bone,[2]; 24 h,12.33
same,Ratio Tumour:Liver,[2]; 24 h,1.72
same,Ratio Tumour:Lung,[2]; 24 h,9.91
same,Ratio Tumour:Muscle,[2]; 24 h,76.90
same,Ratio Tumour:Spleen,[2]; 24 h,3.78
same,Ratio Tumour:Blood,[2]; 72 h,126.69
same,Ratio Tumour:Bone,[2]; 72 h,5.88
same,Ratio Tumour:Liver,[2]; 72 h,0.86
same,Ratio Tumour:Lung,[2]; 72 h,6.60
same,Ratio Tumour:Muscle,[2]; 72 h,50.64
same,Ratio Tumour:Spleen,[2]; 72 h,1.53
